Measured values as given in PubChem BioAssay AID1963978 (Molecular Pharmacology Branch, DTP, NCI, 2024).

Tested on: 616215-338-R-J1-PDC spheroids with HUVEC/MSC, viability
Experiment: Anticancer human tumor 616215-338-R-J1-PDC patient-derived colon adenocarcinoma cell line growth inhibition [PI3K]
Conditions: for viability, T/C: stronger effect = lower value
Outline: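 Tumor cells were combined with HUVEC and MSCs into spheroids, then dosed with PI3K-inhibitor combinations over half-log ranges capped near clinical Cmax or 10 microM.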

[1] = curve of first compound, second compound 0.0316 µM
[2] = curve of first compound, second compound 0.1 µM
[3] = curve of first compound, second compound 0.316 µM
[4] = curve of first compound, second compound 1 µM
[5] = curve of first compound, second compound 3.16 µM
[6] = curve of first compound, second compound 10 µM
[7] = second compound 0.0316 µM, first compound 0.0316 µM
[8] = second compound 0.0316 µM, first compound 0.1 µM
[9] = second compound 0.0316 µM, first compound 0.316 µM
[10] = second compound 0.0316 µM, first compound 1 µM
[11] = second compound 0.0316 µM, first compound 3.16 µM
[12] = second compound 0.0316 µM, first compound 10 µM
[13] = second compound 0.1 µM, first compound 0.0316 µM
[14] = second compound 0.1 µM, first compound 0.1 µM
[15] = second compound 0.1 µM, first compound 0.316 µM
[16] = second compound 0.1 µM, first compound 1 µM
[17] = second compound 0.1 µM, first compound 3.16 µM
[18] = second compound 0.1 µM, first compound 10 µM
[19] = second compound 0.316 µM, first compound 0.0316 µM
[20] = second compound 0.316 µM, first compound 0.1 µM
[21] = second compound 0.316 µM, first compound 0.316 µM
[22] = second compound 0.316 µM, first compound 1 µM
[23] = second compound 0.316 µM, first compound 3.16 µM
[24] = second compound 0.316 µM, first compound 10 µM
[25] = second compound 1 µM, first compound 0.0316 µM
[26] = second compound 1 µM, first compound 0.1 µM
[27] = second compound 1 µM, first compound 0.316 µM
[28] = second compound 1 µM, first compound 1 µM
[29] = second compound 1 µM, first compound 3.16 µM
[30] = second compound 1 µM, first compound 10 µM
[31] = second compound 3.16 µM, first compound 0.0316 µM
[32] = second compound 3.16 µM, first compound 0.1 µM
[33] = second compound 3.16 µM, first compound 0.316 µM
[34] = second compound 3.16 µM, first compound 1 µM
[35] = second compound 3.16 µM, first compound 3.16 µM
[36] = second compound 3.16 µM, first compound 10 µM
[37] = second compound 10 µM, first compound 0.0316 µM
[38] = second compound 10 µM, first compound 0.1 µM
[39] = second compound 10 µM, first compound 0.316 µM
[40] = second compound 10 µM, first compound 1 µM
[41] = second compound 10 µM, first compound 3.16 µM
[42] = second compound 10 µM, first compound 10 µM
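Also: spheroids exposed to agents for seven days before the viability read.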

Cn1ncc(Cl)c1-c1cc(C(=O)NC(CN)Cc2cccc(F)c2)sc1Cl (stereo not drawn) + CC(Nc1ncnc2nc[nH]c12)c1cc2cccc(Cl)c2c(=O)n1-c1ccccc1
IC50 [1]: 5.37 µM
IC50 [2]: 4.2 µM
IC50 [3]: 4.15 µM
IC50 [4]: 4.48 µM
IC50 [5]: 3.16 µM
IC50 [6]: 3.29 µM
viability, T/C [7]: 106%
viability, T/C [8]: 87.6%
viability, T/C [9]: 98%
viability, T/C [10]: 93.7%
viability, T/C [11]: 75.7%
viability, T/C [12]: 19.8%
viability, T/C [13]: 107%
viability, T/C [14]: 103%
viability, T/C [15]: 100%
viability, T/C [16]: 92%
viability, T/C [17]: 60.7%
viability, T/C [18]: 16.4%
viability, T/C [19]: 98.4%
viability, T/C [20]: 100%
viability, T/C [21]: 104%
viability, T/C [22]: 95%
viability, T/C [23]: 59.5%
viability, T/C [24]: 19.6%
viability, T/C [25]: 95.9%
viability, T/C [26]: 88.5%
viability, T/C [27]: 105%
viability, T/C [28]: 94.5%
viability, T/C [29]: 64%
viability, T/C [30]: 17.6%
viability, T/C [31]: 104%
viability, T/C [32]: 113%
viability, T/C [33]: 96.1%
viability, T/C [34]: 82.1%
viability, T/C [35]: 50%
viability, T/C [36]: 19.6%
viability, T/C [37]: 98.3%
viability, T/C [38]: 112%
viability, T/C [39]: 106%
viability, T/C [40]: 75.1%
viability, T/C [41]: 54.7%
viability, T/C [42]: 20.6%

C[C@@H](NC(=O)c1ncnc(N)c1Cl)c1ncc(C(=O)Nc2cc(C(F)(F)F)c(Cl)cn2)s1 + COc1c(OCCCN2CCOCC2)ccc2c3n(c(=NC(=O)c4cnc(N)nc4)nc12)CCN3
IC50 (curve of first compound, second compound 0.00316 µM): > 10 µM
IC50 (curve of first compound, second compound 0.01 µM): > 10 µM
IC50 [1]: > 10 µM
IC50 [2]: 6.86 µM
IC50 [3]: 0.072 µM
IC50 [4]: < 0.0316 µM
viability, T/C (second compound 0.00316 µM, first compound 0.0316 µM): 94.6%
viability, T/C (second compound 0.00316 µM, first compound 0.1 µM): 117%
viability, T/C (second compound 0.00316 µM, first compound 0.316 µM): 117%
viability, T/C (second compound 0.00316 µM, first compound 1 µM): 109%
viability, T/C (second compound 0.00316 µM, first compound 3.16 µM): 104%
viability, T/C (second compound 0.00316 µM, first compound 10 µM): 80.2%
viability, T/C (second compound 0.01 µM, first compound 0.0316 µM): 96.3%
viability, T/C (second compound 0.01 µM, first compound 0.1 µM): 102%
viability, T/C (second compound 0.01 µM, first compound 0.316 µM): 116%
viability, T/C (second compound 0.01 µM, first compound 1 µM): 115%
viability, T/C (second compound 0.01 µM, first compound 3.16 µM): 112%
viability, T/C (second compound 0.01 µM, first compound 10 µM): 89.3%
viability, T/C [7]: 97.9%
viability, T/C [8]: 106%
viability, T/C [9]: 106%
viability, T/C [10]: 113%
viability, T/C [11]: 91.2%
viability, T/C [12]: 53.3%
viability, T/C [13]: 114%
viability, T/C [14]: 103%
viability, T/C [15]: 97.6%
viability, T/C [16]: 97.2%
viability, T/C [17]: 74.7%
viability, T/C [18]: 37.7%
viability, T/C [19]: 54%
viability, T/C [20]: 48.4%
viability, T/C [21]: 40.2%
viability, T/C [22]: 32.2%
viability, T/C [23]: 28.4%
viability, T/C [24]: 8.73%
viability, T/C [25]: 24.4%
viability, T/C [26]: 19.7%
viability, T/C [27]: 16.2%
viability, T/C [28]: 11.3%
viability, T/C [29]: 6.09%
viability, T/C [30]: 1.64%

CC(C)NCC(C(=O)N1CCN(c2ncnc3c2C(C)CC3O)CC1)c1ccc(Cl)cc1 (stereo not drawn) + CC(Nc1ncnc2nc[nH]c12)c1cc2cccc(Cl)c2c(=O)n1-c1ccccc1
IC50 [1]: 4.16 µM
IC50 [2]: 3.77 µM
IC50 [3]: 4.74 µM
IC50 [4]: 5.08 µM
IC50 [5]: 4.13 µM
IC50 [6]: 3.54 µM
viability, T/C [7]: 91.7%
viability, T/C [8]: 93.4%
viability, T/C [9]: 94.4%
viability, T/C [10]: 87.2%
viability, T/C [11]: 57.9%
viability, T/C [12]: 24.9%
viability, T/C [13]: 103%
viability, T/C [14]: 86.7%
viability, T/C [15]: 91%
viability, T/C [16]: 94.2%
viability, T/C [17]: 54.8%
viability, T/C [18]: 23.5%
viability, T/C [19]: 90.5%
viability, T/C [20]: 95%
viability, T/C [21]: 83.7%
viability, T/C [22]: 94%
viability, T/C [23]: 65.2%
viability, T/C [24]: 21.9%
viability, T/C [25]: 90.3%
viability, T/C [26]: 90.8%
viability, T/C [27]: 101%
viability, T/C [28]: 109%
viability, T/C [29]: 67.2%
viability, T/C [30]: 25.4%
viability, T/C [31]: 89.2%
viability, T/C [32]: 101%
viability, T/C [33]: 99.8%
viability, T/C [34]: 79.9%
viability, T/C [35]: 58.4%
viability, T/C [36]: 26.2%
viability, T/C [37]: 105%
viability, T/C [38]: 104%
viability, T/C [39]: 100%
viability, T/C [40]: 91.7%
viability, T/C [41]: 52.2%
viability, T/C [42]: 27.8%

CC(C)n1nc(-c2ccc3oc(N)nc3c2)c2c(N)ncnc21
viability, T/C (compound 0.000316 µM): 95.1% [middle of 4 runs]
viability, T/C (compound 0.001 µM): 95.7% [middle of 4 runs]
viability, T/C (compound 0.00316 µM): 100% [middle of 4 runs]
viability, T/C (compound 0.01 µM): 107% [middle of 4 runs]
viability, T/C (compound 0.0316 µM): 121% [middle of 4 runs]
viability, T/C (compound 0.1 µM): 94.5% [middle of 4 runs]
IC50 (curve of compound): > 0.1 µM
